Test results as given in ChEMBL document CHEMBL1145580, “Synthesis of diketopiperazine-based carboline homodimers and in vitro growth inhibition of human carcinomas” (2008).

Key:
Type in all cases: functional
NCI-H520 [1] = assay: Cytotoxicity against human NCI-H520 cells assessed as cell survival at 10 uM relative to control; conditions: read-out: Activity
PC-3 [2] = assay: Cytotoxicity against human PC3 cells assessed as cell survival at 10 uM relative to control; conditions: read-out: Activity
NCI-H520 [3] = assay: Cytotoxicity against human NCI-H520 cells assessed as cell survival at 100 uM relative to control; conditions: read-out: Activity
PC-3 [4] = assay: Cytotoxicity against human PC3 cells assessed as cell survival at 50 uM relative to control; conditions: read-out: Activity
NCI-H520 [5] = assay: Growth inhibition of human NCI-H520 cells
PC-3 [6] = assay: Growth inhibition of human PC3 cells
PC-3 [7] = assay: Cytotoxicity against human PC3 cells assessed as cell survival at 100 uM relative to control; conditions: read-out: Activity
NCI-H520 [8] = assay: Cytotoxicity against human NCI-H520 cells assessed as cell survival at 50 uM relative to control; conditions: read-out: Activity

GI50 (NCI-H520 [5]) | GI50 (PC-3 [6]) | Compound | viability at 10 µM (NCI-H520 [1]) | viability at 10 µM (PC-3 [2]) | viability at 100 µM (NCI-H520 [3]) | viability at 50 µM (PC-3 [4]) | viability at 100 µM (PC-3 [7]) | viability at 50 µM (NCI-H520 [8])
61.5 µM | 55.3 µM | COc1cc([C@H]2c3[nH]c4ccccc4c3C[C@@H]3C(=O)N4[C@@H](c5cc(OC)c(O)c(OC)c5)c5[nH]c6ccccc6c5C[C@@H]4C(=O)N23)cc(OC)c1O | 88.7% | > 100% | 26.8% | 43.6% | 15.7% | 53.2%
13.5 µM | 12.5 µM | COc1cc([C@@H]2c3cc4c(cc3[C@@H](O[C@@H]3O[C@@H]5CO[C@@H](C)O[C@H]5[C@H](O)[C@H]3O)[C@H]3COC(=O)[C@H]23)OCO4)cc(OC)c1O [ETOPOSIDE] | 78.6% | 73.8% | 21.3% | 41.2% | 30.8% | 35.2%
 |  | COc1cc([C@H]2c3[nH]c4ccccc4c3C[C@@H]3C(=O)N4[C@@H](c5cc(OC)c(OC)c(OC)c5)c5[nH]c6ccccc6c5C[C@@H]4C(=O)N23)cc(OC)c1OC | 99.8% | > 100% | 98.9% | > 100% | 77.4% | 98.9%
 |  | COc1cc([C@@H]2c3[nH]c4ccccc4c3C[C@H]3C(=O)N4[C@H](c5cc(OC)c(OC)c(OC)c5)c5[nH]c6ccccc6c5C[C@H]4C(=O)N23)cc(OC)c1OC | 90.3% | 93% | 86.7% | 80.5% | 65% | 90.8%
21.5 µM | 21.9 µM | COc1cc([C@@H]2c3[nH]c4ccccc4c3C[C@H]3C(=O)N4[C@H](c5cc(OC)c(O)c(OC)c5)c5[nH]c6ccccc6c5C[C@H]4C(=O)N23)cc(OC)c1O | 67.3% | 80.7% | 5.8% | 3.3% | 1.6% | 16.5%
 |  | COc1cc([C@H]2c3[nH]c4ccccc4c3C[C@@H]3C(=O)N4[C@@H](c5cc(OC)c(OCc6ccccc6)c(OC)c5)c5[nH]c6ccccc6c5C[C@@H]4C(=O)N23)cc(OC)c1OCc1ccccc1 | > 100% | > 100% | 84.5% | 92.7% | 65.1% | > 100%
 |  | COc1cc([C@@H]2c3[nH]c4ccccc4c3C[C@H]3C(=O)N4[C@H](c5cc(OC)c(OCc6ccccc6)c(OC)c5)c5[nH]c6ccccc6c5C[C@H]4C(=O)N23)cc(OC)c1OCc1ccccc1 | 88.1% | 98.2% | 81% | 68.8% | 54.5% | 81.3%

Compound | GI50 (NCI-H520 [5]) | GI50 (PC-3 [6]) | viability at 10 µM (NCI-H520 [1]) | viability at 10 µM (PC-3 [2]) | viability at 100 µM (NCI-H520 [3]) | viability at 50 µM (PC-3 [4]) | viability at 100 µM (PC-3 [7]) | viability at 50 µM (NCI-H520 [8])
CC(C)=CCc1[nH]c2ccccc2c1C[C@@H]1NC(=O)[C@H]2CCCN2C1=O |  | 12.3 µM |  |  |  |  |  | 
